# Measurements: PubChem BioAssay (NCI)
#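 The compound was tested at five concentrations on cells cultured in 96-well plates, with a 48-hour exposure period. GI50 is the concentration that inhibits growth by half. TGI: total growth inhibition.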
# Experiments:
# Assay in all cases: NCI tumour cell line growth inhibition, 48 h
# HCT-116 colon = system: HCT-116 colon
# K-562 leukemia = system: K-562 leukemia
# M14 melanoma = system: M14 melanoma
# MALME-3M melanoma = system: MALME-3M melanoma
# NCI-H226 lung = system: NCI-H226 lung
# OVCAR-4 ovarian = system: OVCAR-4 ovarian
# SF-295 CNS = system: SF-295 CNS
# SF-539 CNS = system: SF-539 CNS
# SNB-75 CNS = system: SNB-75 CNS
# UO-31 renal = system: UO-31 renal
Structure (SMILES),GI50 (HCT-116 colon) [nM],TGI (HCT-116 colon) [µM],GI50 (K-562 leukemia) [nM],TGI (K-562 leukemia) [µM],GI50 (M14 melanoma) [nM],TGI (M14 melanoma) [µM],GI50 (MALME-3M melanoma) [nM],TGI (MALME-3M melanoma) [µM],GI50 (NCI-H226 lung) [µM],TGI (NCI-H226 lung) [µM],GI50 (OVCAR-4 ovarian) [µM],TGI (OVCAR-4 ovarian) [µM],GI50 (SF-295 CNS) [nM],TGI (SF-295 CNS) [µM],GI50 (SF-539 CNS) [nM],TGI (SF-539 CNS) [µM],GI50 (SNB-75 CNS) [nM],TGI (SNB-75 CNS) [µM],GI50 (UO-31 renal) [µM],TGI (UO-31 renal) [µM]
Nc1ccccc1NC(=O)c1ccc(CCCC(=O)Nc2ccc(C3CC3N)cc2)cc1 (stereo not given),375,16,658,> 100,2010,15.4,559,7.2,1.85,69.4,2.21,26.4,1960,9.43,972,70.9,1890,50.4,4.62,20.6
CCOC(=O)C(=O)Nc1ccc(Cl)cc1C,–,> 100,–,> 100,–,> 100,–,> 100,–,> 100,–,> 100,–,> 100,–,> 100,–,> 100,–,> 100
O=C(O)c1cc2ccccc2oc1=O,–,> 100,–,> 100,–,> 100,–,> 100,–,> 100,–,> 100,–,> 100,–,> 100,–,> 100,–,> 100
CN(C)/N=C(/c1nc2ccc([N+](=O)[O-])cc2[nH]c1=O)C(O)c1ccco1 (stereo not given),–,> 100,–,> 100,–,> 100,–,> 100,–,> 100,–,> 100,–,> 100,–,> 100,–,> 100,–,90.5
O=C(CC1(O)C(=O)Nc2ccccc21)c1ccco1 (stereo not given),–,> 100,–,> 100,–,> 100,–,> 100,–,> 100,–,> 100,–,> 100,–,> 100,–,> 100,–,> 100
CC(=O)N1c2ccccc2NC2=C(C(=O)N(Cc3ccccc3)C2(C)C)C1c1ccco1 (stereo not given),692,> 25,166,> 25,748,5.31,1200,> 25,> 25,> 25,> 6.37,> 25,766,> 6.83,395,1.17,841,> 5.78,1.23,> 25
COC(=O)NC1(NC(=O)OC)NC(=O)c2cc(OC)c(OC)c(OC)c2N1,–,> 100,–,> 100,–,> 100,–,> 100,–,> 100,–,> 100,–,> 100,–,> 100,–,38.8,–,> 100
Cc1ccc(NC(=O)C(=O)CC(=O)C2CCOC2=O)c(C)c1 (stereo not given),–,> 100,–,> 100,–,> 100,–,> 100,–,> 100,–,> 100,–,> 100,–,> 100,–,> 100,–,> 100
Fc1ccc(-c2ncn(C3CCNCC3)c2-c2ccnc(Oc3ccc(F)c(F)c3)n2)cc1,4090,7.56,7560,> 19.9,4800,8.97,5190,9.85,9.34,> 25,5.91,18.3,7150,> 17.2,4940,9.8,8640,> 25,6.25,> 25
